Assay results taken from ChEMBL document CHEMBL5380793, “Structure-Activity Relationship of Novel Pyrimidine Derivatives with Potent Inhibitory Activities against Mycobacterium tuberculosis” (J Med Chem, 2023).
In brackets after ≈: the same amount, converted by molar mass.

What was measured:
[1] = Cytotoxicity against human HepG2 cells assessed as inhibition of cell growth incubated for 48 hrs by MTT assay; format: toxicity, cell-based
[2] = tested on: Mycobacterium tuberculosis; experiment: Antitubercular activity against marker free autoluminescent Mycobacterium tuberculosis H37Ra assessed as reduction in relative light unit measured once a day for 6 days; format: functional; conditions: 144 h, time 6 day
[3] = tested on: Mycobacterium tuberculosis; experiment: Antibacterial activity against Mycobacterium tuberculosis clinical isolate K5 assessed as inhibition of bacterial growth incubated for 6 days by microplate alamar blue assay; format: functional; conditions: K5, 144 h, time 6 day
[4] = tested on: Mycobacterium tuberculosis; experiment: Antibacterial activity against Mycobacterium tuberculosis clinical isolate K12 assessed as inhibition of bacterial growth incubated for 6 days by microplate alamar blue assay; format: functional; conditions: K12, 144 h, time 6 day
[5] = tested on: Mycobacterium tuberculosis; experiment: Antibacterial activity against Mycobacterium tuberculosis H37Rv assessed as inhibition of bacterial growth incubated for 6 days by microplate alamar blue assay; format: functional; conditions: 144 h, time 6 day
[6] = tested on: Mycobacterium tuberculosis; experiment: Antibacterial activity against Mycobacterium tuberculosis clinical isolate K4 assessed as inhibition of bacterial growth incubated for 6 days by microplate alamar blue assay; format: functional; conditions: K4, 144 h, time 6 day
[7] = tested on: Mycobacterium tuberculosis; experiment: Antibacterial activity against Mycobacterium tuberculosis clinical isolate K16 assessed as inhibition of bacterial growth incubated for 6 days by microplate alamar blue assay; format: functional; conditions: K16, 144 h, time 6 day

Row | Structure (SMILES) | IC50 at 48 h [1] | MIC [2] | other results
1 | Cc1cc(Nc2nc(-c3ccc4c(c3)OCO4)ncc2Cl)c(OC(C)C)cc1C1CCNCC1 | 1000 nM | 1 µg/mL (≈ 2.08 µM) | –
2 | NNC(=O)c1ccncc1 [ISONIAZID] | – | – | MIC [3]: > 50 µg/mL; MIC [4]: > 10 µg/mL; MIC [5]: < 1 µg/mL; MIC [6]: > 50 µg/mL; MIC [7]: > 10 µg/mL
3 | Cc1cc(Nc2ccnc(-c3ccccc3)n2)c(OC(C)C)cc1C1CCNCC1 | 1900 nM | 4 µg/mL (≈ 9.94 µM) | –
4 | Cc1cc(Nc2cc(C)c(C3CCNCC3)cc2OC(C)C)nc(-c2ccccc2)n1 | 1900 nM | 4 µg/mL (≈ 9.6 µM) | –
5 | Cc1cc(NC(=S)Nc2ccc(F)cc2)c(OC(C)C)cc1C1CCNCC1 | > 20000 nM | > 64 µg/mL | –
6 | CCCCOc1cc(N2CCNCC2)ccc1Nc1nc(-c2ccccc2)ncc1Cl | 2600 nM | 1 µg/mL (≈ 2.28 µM) | –
7 | Cc1cc(NC(=O)Nc2ccc(F)cc2)c(OC(C)C)cc1C1CCNCC1 | > 20000 nM | > 64 µg/mL | –
8 | Cc1cc(Nc2nc(-c3ccncc3)ncc2Cl)c(OC(C)C)cc1C1CCNCC1 | 2000 nM | 2 µg/mL (≈ 4.57 µM) | –
9 | Cc1cc(Nc2nc(-c3cccc(O)c3)ncc2Cl)c(OC(C)C)cc1C1CCNCC1 | 1300 nM | 2 µg/mL (≈ 4.42 µM) | –
10 | Cc1cc(Nc2nc(-c3ccc(CO)cc3)ncc2Cl)c(OC(C)C)cc1C1CCNCC1 | 2000 nM | 2 µg/mL (≈ 4.28 µM) | –
11 | Cc1cc(Nc2nc(-c3ccc(C(C)C)cc3)ncc2Cl)c(OC(C)C)cc1C1CCNCC1 | 2200 nM | 1 µg/mL (≈ 2.09 µM) | –
12 | Cc1cc(Nc2nc(-c3ccc4ccccc4c3)ncc2Cl)c(OC(C)C)cc1C1CCNCC1 | 500 nM | 0.5 µg/mL (≈ 1.03 µM) | –
13 | Cc1cc(Nc2nc(C3CC3)ncc2Cl)c(OC(C)C)cc1C1CCNCC1 | 2000 nM | 2 µg/mL (≈ 4.99 µM) | –
14 | Cc1cc(Nc2cc(C(F)(F)F)nc(-c3ccccc3)n2)c(OC(C)C)cc1C1CCNCC1 | 1300 nM | 2 µg/mL (≈ 4.25 µM) | –
15 | Cc1cc(Nc2nc(-c3ccccc3)nc3ccccc23)c(OC(C)C)cc1C1CCNCC1 | 2800 nM | 2 µg/mL (≈ 4.42 µM) | –
16 | Cc1cc(Nc2nc(NC3CCCC3)ncc2Cl)c(OC(C)C)cc1C1CCNCC1 | 3800 nM | 1 µg/mL (≈ 2.25 µM) | –
17 | CCc1ncc(Cl)c(Nc2cc(C)c(C3CCNCC3)cc2OC(C)C)n1 | 8000 nM | 8 µg/mL (≈ 20.6 µM) | –
18 | Cc1cc(Nc2nc(-c3ccc(Cl)cc3)ncc2Cl)c(OC(C)C)cc1C1CCNCC1 | 2300 nM | 0.5 µg/mL (≈ 1.06 µM) | –
19 | Clc1cnc(-c2ccccc2)nc1Nc1ccc(N2CCNCC2)cc1 | 3300 nM | 8 µg/mL (≈ 21.9 µM) | –

Row | Structure (SMILES) | IC50 at 48 h [1] | MIC [2] | other results
20 | Cc1ccc(-c2ncc(Cl)c(Nc3cc(C)c(C4CCNCC4)cc3OC(C)C)n2)cc1 | 2500 nM | 1 µg/mL (≈ 2.22 µM) | –
21 | CCC(C)Oc1cc(N2CCNCC2)ccc1Nc1nc(-c2ccccc2)ncc1Cl (stereo not given) | 2300 nM | 1 µg/mL (≈ 2.28 µM) | –
22 | Cc1cc(Nc2cc(-c3ccccc3)nc3ncnn23)c(OC(C)C)cc1C1CCNCC1 | 4400 nM | 4 µg/mL (≈ 9.04 µM) | –
23 | CO[C@H]1/C=C/O[C@@]2(C)Oc3c(C)c(O)c4c(O)c(c(/C=N/N5CCN(C)CC5)c(O)c4c3C2=O)NC(=O)/C(C)=C\C=C\[C@H](C)[C@H](O)[C@@H](C)[C@@H](O)[C@@H](C)[C@H](OC(C)=O)[C@@H]1C [RIFAMPIN] | – | – | MIC [3]: > 50 µg/mL; MIC [4]: > 10 µg/mL; MIC [5]: < 1 µg/mL; MIC [6]: > 50 µg/mL; MIC [7]: > 10 µg/mL
24 | Cc1cc(Nc2nc(Cl)ncc2Cl)c(OC(C)C)cc1C1CCNCC1 | 16000 nM | 16 µg/mL (≈ 40.5 µM) | –
25 | Cc1cc(Nc2nc(-c3cccnc3)ncc2Cl)c(OC(C)C)cc1C1CCNCC1 | 1700 nM | 2 µg/mL (≈ 4.57 µM) | –
26 | COc1cccc(Nc2ncc(Cl)c(Nc3cc(C)c(C4CCNCC4)cc3OC(C)C)n2)c1 | 1300 nM | 1 µg/mL (≈ 2.07 µM) | –
27 | Cc1cc(Nc2nc(-c3ccccc3CO)ncc2Cl)c(OC(C)C)cc1C1CCNCC1 | 2000 nM | 4 µg/mL (≈ 8.57 µM) | –
28 | CC(C)COc1cc(N2CCNCC2)ccc1Nc1nc(-c2ccccc2)ncc1Cl | 2600 nM | 1 µg/mL (≈ 2.28 µM) | –
29 | Cc1cc(Nc2nc(Nc3cccc(Cl)c3)ncc2Cl)c(OC(C)C)cc1C1CCNCC1 | 2000 nM | 1 µg/mL (≈ 2.06 µM) | –
30 | Cc1cc(Nc2nc(N)ncc2Cl)c(OC(C)C)cc1C1CCNCC1 | > 10000 nM | 32 µg/mL (≈ 85.1 µM) | –
31 | Clc1cnc(-c2ccccc2)nc1Nc1ccc(N2CCNCC2)cc1OCC1CCCCC1 | 2900 nM | 2 µg/mL (≈ 4.18 µM) | –
32 | Cc1cc2nc(-c3ccccc3)cc(Nc3cc(C)c(C4CCNCC4)cc3OC(C)C)n2n1 | 4700 nM | 8 µg/mL (≈ 17.6 µM) | –
33 | COc1cc(N2CCNCC2)ccc1Nc1nc(-c2ccccc2)ncc1Cl | 2700 nM | 4 µg/mL (≈ 10.1 µM) | –
34 | Clc1cnc(-c2ccccc2)nc1Nc1ccc(N2CCNCC2)cc1OC1CCCCC1 | 3100 nM | 2 µg/mL (≈ 4.31 µM) | –
35 | CC(C)Oc1cc(N2CCNCC2)ccc1Nc1nc(-c2ccccc2)ncc1Cl | 2900 nM | 1 µg/mL (≈ 2.36 µM) | –
36 | Cc1cc(Nc2nc(Nc3cccc4ccccc34)ncc2Cl)c(OC(C)C)cc1C1CCNCC1 | 2200 nM | 2 µg/mL (≈ 3.98 µM) | –
37 | CCCc1ccc(-c2ncc(Cl)c(Nc3cc(C)c(C4CCNCC4)cc3OC(C)C)n2)cc1 | 2200 nM | 1 µg/mL (≈ 2.09 µM) | –
38 | CCCOc1cc(N2CCNCC2)ccc1Nc1nc(-c2ccccc2)ncc1Cl | 2100 nM | 1 µg/mL (≈ 2.36 µM) | –

Row | Structure (SMILES) | IC50 at 48 h [1] | MIC [2] | other results
39 | Cc1cc(Nc2nc(-c3ccc4c(c3)OCCO4)ncc2Cl)c(OC(C)C)cc1C1CCNCC1 | 1000 nM | 1 µg/mL (≈ 2.02 µM) | –
40 | Cc1cc(Nc2nc(-c3cccc(CO)c3)ncc2Cl)c(OC(C)C)cc1C1CCNCC1 | 4000 nM | 4 µg/mL (≈ 8.57 µM) | –
41 | CCOc1cc(N2CCNCC2)ccc1Nc1nc(-c2ccccc2)ncc1Cl | 2500 nM | 2 µg/mL (≈ 4.88 µM) | –
42 | COc1ccccc1Nc1ncc(Cl)c(Nc2cc(C)c(C3CCNCC3)cc2OC(C)C)n1 | 2000 nM | 2 µg/mL (≈ 4.15 µM) | –
43 | Cc1cc(Nc2nc(Nc3cccc(F)c3)ncc2Cl)c(OC(C)C)cc1C1CCNCC1 | 1900 nM | 0.5 µg/mL (≈ 1.06 µM) | –
44 | Clc1cnc(-c2ccccc2)nc1Nc1ccc(N2CCNCC2)cc1OC1CCCC1 | 2700 nM | 1 µg/mL (≈ 2.22 µM) | –
45 | Cc1cc(C)cc(-c2ncc(Cl)c(Nc3cc(C)c(C4CCNCC4)cc3OC(C)C)n2)c1 | 2900 nM | 1 µg/mL (≈ 2.15 µM) | –
46 | Cc1cc(Nc2cc(-c3ccccc3)nc3ccnn23)c(OC(C)C)cc1C1CCNCC1 | 4100 nM | 4 µg/mL (≈ 9.06 µM) | –
47 | Cc1cc(Nc2nc(Nc3ccccc3F)ncc2Cl)c(OC(C)C)cc1C1CCNCC1 | 1900 nM | 1 µg/mL (≈ 2.13 µM) | –
48 | Cc1cc(Nc2nc(-c3ccc(C(C)(C)C)cc3)ncc2Cl)c(OC(C)C)cc1C1CCNCC1 | 2300 nM | 1 µg/mL (≈ 2.03 µM) | –
49 | Cc1cc(Nc2nc(NC3CC3)ncc2Cl)c(OC(C)C)cc1C1CCNCC1 | 7600 nM | 4 µg/mL (≈ 9.62 µM) | –
50 | CC(C)CCOc1cc(N2CCNCC2)ccc1Nc1nc(-c2ccccc2)ncc1Cl | 2100 nM | 1 µg/mL (≈ 2.21 µM) | –
51 | Cc1cc(Nc2nc(-c3cccc4ccccc34)ncc2Cl)c(OC(C)C)cc1C1CCNCC1 | 500 nM | 0.5 µg/mL (≈ 1.03 µM) | –
52 | Cc1cc(Nc2nc(Nc3ccc(Cl)cc3Cl)ncc2Cl)c(OC(C)C)cc1C1CCNCC1 | 2500 nM | 2 µg/mL (≈ 3.84 µM) | –
53 | Cc1cc(Nc2nc(-c3ccccc3)ncc2F)c(OC(C)C)cc1C1CCNCC1 | 2800 nM | 0.5 µg/mL (≈ 1.19 µM) | –
54 | CNC(=O)c1ccc(-c2ncc(Cl)c(Nc3cc(C)c(C4CCNCC4)cc3OC(C)C)n2)cc1 | 2000 nM | 2 µg/mL (≈ 4.05 µM) | –
55 | Cc1cc(Nc2nc(Nc3cccc(C(F)(F)F)c3)ncc2Cl)c(OC(C)C)cc1C1CCNCC1 | 1100 nM | 1 µg/mL (≈ 1.92 µM) | –
56 | Cc1cc(Nc2nc(-c3cnc4ccccc4c3)ncc2Cl)c(OC(C)C)cc1C1CCNCC1 | 1000 nM | 1 µg/mL (≈ 2.05 µM) | –
57 | Cc1cc(Nc2nc(-c3ccccc3)nc3ccsc23)c(OC(C)C)cc1C1CCNCC1 | 1700 nM | 2 µg/mL (≈ 4.36 µM) | –
